{"source": "patent US6787674B1", "about": "“(+)-1-Bisabolone isolated from cymbopogon flexuosus and antibacterial activity thereof” (Council of Scientific and Industrial Research, priority 2003, dated 2004)", "assay_type_in_all_cases": "cell-based", "key": {"Bacillus subtilis": {"test_system": "Bacillus subtilis", "experiment": "Filter paper disc agar diffusion, antibacterial activity", "method": "(§1) The pure bacterial cultures of test bacteria were procured from laboratory culture collection maintained at RRL, Jammu. The bacterial organisms were subcultured on L B. broth. Following filter paper disc agar diffusion method (Maruzella, J. C. and Henry, P. A. 1958, the antifungal activity of perfume oils. J. Amer. Pharm. Ass., 47:471-476).\n(§2) 20 ml of sterilized medium was taken in each petriplate. After the agar has hardened, 2 ml of 24 hrs. broth culture of organism was added to each petriplate and mixed thoroughly by rotatory motion of the plate and allowed to set. The sterilized Whatman filter paper No. 1 discs (4 mm diameter) were thoroughly moistened with 5 μl of (+)-1-bisabolone of formula 1 in dilution of 1:50, 1:100 in the solvent Tween-80 and placed on the seeded agar plates. The standard antibiotic disc of ampicillin was placed on surface of each seeded petriplate as standard for anti-bacterial activity. Three each of seeded agar plates for each organism were incubated at 37° C. for 36 hrs. […] The zone of inhibition was measured with the help of a divider. The […] were performed in triplicate and average zones of inhibition for anti-bacterial activity are recorded in Table-2."}, "Staphylococcus aureus": {"test_system": "Staphylococcus aureus", "experiment": "Filter paper disc agar diffusion, antibacterial activity", "method": "as §1, §2"}, "Bacillus cereus": {"test_system": "Bacillus cereus", "experiment": "Filter paper disc agar diffusion, antibacterial activity", "method": "as §1, §2"}, "other test bacteria": {"test_system": "other test bacteria", "experiment": "In vitro antibacterial activity, other test bacteria", "method": "as §1, §2"}, "gram positive bacteria": {"test_system": "gram positive bacteria", "experiment": "In vitro antibacterial activity compared with standard ampicillin", "method": "as §1, §2"}, "[1]": {"details": "Pure 1, 4 mm disc, 37° C., 36 hrs"}, "[2]": {"details": "dilution 1:50 in Tween-80, 5 μl on 4 mm disc, 37° C., 36 hrs"}, "[3]": {"details": "dilution 1:100 in Tween-80, 5 μl on 4 mm disc, 37° C., 36 hrs"}, "[4]": {"details": "control (standard antibiotic disc of ampicillin)"}}, "data": [{"smiles": "CC(C)=CCC[C@H](C)[C@H]1CCC(C)=CC1=O", "note": "[(+)-1-bisabolone]", "values": [{"measurement": "in vitro antibacterial activity (in words)", "setting": "Bacillus subtilis", "value": "strongly active"}, {"measurement": "Diameter (mm) of zone inhibition", "setting": "Bacillus subtilis; [1]", "value": 19, "unit": "mm"}, {"measurement": "Diameter (mm) of zone inhibition", "setting": "Bacillus subtilis; [2]", "value": 15, "unit": "mm"}, {"measurement": "Diameter (mm) of zone inhibition", "setting": "Bacillus subtilis; [3]", "value": 13, "unit": "mm"}, {"measurement": "in vitro antibacterial activity (in words)", "setting": "Staphylococcus aureus", "value": "strongly active"}, {"measurement": "Diameter (mm) of zone inhibition", "setting": "Staphylococcus aureus; [1]", "value": 24, "unit": "mm"}, {"measurement": "Diameter (mm) of zone inhibition", "setting": "Staphylococcus aureus; [2]", "value": 19, "unit": "mm"}, {"measurement": "Diameter (mm) of zone inhibition", "setting": "Staphylococcus aureus; [3]", "value": 13, "unit": "mm"}, {"measurement": "in vitro antibacterial activity (in words)", "setting": "Bacillus cereus", "value": "strongly active"}, {"measurement": "Diameter (mm) of zone inhibition", "setting": "Bacillus cereus; [1]", "value": 21, "unit": "mm"}, {"measurement": "Diameter (mm) of zone inhibition", "setting": "Bacillus cereus; [2]", "value": 13, "unit": "mm"}, {"measurement": "Diameter (mm) of zone inhibition", "setting": "Bacillus cereus; [3]", "value": 9, "unit": "mm"}, {"measurement": "in vitro antibacterial activity (in words)", "setting": "other test bacteria", "value": "good to moderate activity"}, {"measurement": "activity compared with the standard ampicillin", "setting": "gram positive bacteria", "value": "far better activity"}]}, {"smiles": "CC1(C)S[C@@H]2[C@H](NC(=O)[C@H](N)c3ccccc3)C(=O)N2[C@H]1C(=O)O", "note": "[control, ampicillin, reference compound]", "values": [{"measurement": "Diameter (mm) of zone inhibition", "setting": "Bacillus subtilis; [4]", "value": 5, "unit": "mm"}, {"measurement": "Diameter (mm) of zone inhibition", "setting": "Staphylococcus aureus; [4]", "value": 6, "unit": "mm"}, {"measurement": "Diameter (mm) of zone inhibition", "setting": "Bacillus cereus; [4]", "value": 4, "unit": "mm"}]}]}
